Values after ≈ are worked out from the molar mass of the structure shown. Numbered stars: 1 amine (or outer) side, 2 acyl side, 3 side chain; on linkers, the order of the positions; unused ones are H or OH. Square brackets hold non-standard residues; d marks the D form. Peptide text beside a SMILES is read from it. * marks the point of attachment. ξ: configuration not given here. X1 = N=C1NCC(C(O)C(N[*:1])C(=O)[*:2])N1C1OC(CO)C(O)C(O)C1O; ξEnduracididine(βξ-OH,4'ξ) = N=C1NCC(C(O)C(N)C(=O)O)N1; X2 = OCC1OC(OC2C(CO)OC(*)C(O)C2O)C(O)C(O)C1O
Legend:
Assay in all cases: in vitro antibacterial evaluation, MIC by broth dilution
Assay type in all cases: cell-based
Streptococcus sp. = details: broth dilution, 18 hours at 35° C.
Method in brief: (§1)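 Following National Committee for Clinical Laboratory Standards recommendations (M7-A2), susceptibility was measured by dilution in Muller-Hinton II […]. Bacteria were seeded at 5×10^5 CFU/mL against compound concentrations from 64 down to 0.06 μg/mL.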

Enterococcus sp. = details: broth dilution, 18 hours at 35° C.
Method in brief: as §1

Escherichia coli = details: 18 hours at 35° C.
Method in brief: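 Read-out: the lowest concentration at which the test strain fails to grow. Serial dilutions (64-0.06 μg/mL) in Muller-Hinton II […], 5×10^5 CFU/mL inoculum, NCCLS M7-A2 procedure.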

Staphylococcus sp. = details: broth dilution, 18 hours at 35° C.
Method in brief: as §1

- MIC Streptococcus pneumoniae (ATCC 6301) (Streptococcus sp.; strain ATCC 6301): 128 µg/mL (≈ 99.9 µM)
- MIC Streptococcus pneumoniae (GC 1894) (Streptococcus sp.; strain GC 1894): 128 µg/mL (≈ 99.9 µM)
- MIC Streptococcus pyogenes (GC 4563) (Streptococcus sp.; strain GC 4563): >128 µg/mL
- MIC Streptococcus agalactiae (GC 4564) (Streptococcus sp.; strain GC 4564): >128 µg/mL
- MIC Streptococcus pneumoniae (GC 4565) (Streptococcus sp.; strain GC 4565): >128 µg/mL
- MIC Enterococcus avium (GC 4558) (Enterococcus sp.; Enterococcus avium (GC 4558)): 128 µg/mL (≈ 99.9 µM)
- MIC Enterococcus faecalis (ATCC 29212) (Enterococcus sp.; Enterococcus faecalis (ATCC 29212)): >128 µg/mL
- MIC Enterococcus faecalis (GC 4553) (Enterococcus sp.; Enterococcus faecalis (GC 4553)): >128 µg/mL
- MIC Enterococcus faecalis (GC 4554) (Enterococcus sp.; Enterococcus faecalis (GC 4554)): >128 µg/mL
- MIC Enterococcus faecalis (GC 6189) (Enterococcus sp.; Enterococcus faecalis (GC 6189)): >128 µg/mL
- MIC Enterococcus faecium (GC 2243) (Enterococcus sp.; Enterococcus faecium (GC 2243)): >128 µg/mL
- MIC Enterococcus faecium (GC 4556) (Enterococcus sp.; Enterococcus faecium (GC 4556)): >128 µg/mL
- MIC Enterococcus faecium (GC 4557) (Enterococcus sp.; Enterococcus faecium (GC 4557)): 128 µg/mL (≈ 99.9 µM)
- MIC Enterococcus faecalis (ATCC 29212) (Enterococcus sp.; strain ATCC 29212): >128 µg/mL
- MIC Enterococcus faecalis (GC 2242) (Enterococcus sp.; strain GC 2242): >128 µg/mL
- MIC Enterococcus faecium (GC 2243) (Enterococcus sp.; strain GC 2243): >128 µg/mL
- MIC Enterococcus faecalis (GC 2691) (Enterococcus sp.; strain GC 2691): >128 µg/mL
- MIC Enterococcus faecalis (GC 3059) (Enterococcus sp.; strain GC 3059): >128 µg/mL
- MIC Enterococcus faecalis (GC 4552) (Enterococcus sp.; strain GC 4552): >128 µg/mL
- MIC Enterococcus faecalis (GC 4553) (Enterococcus sp.; strain GC 4553): >128 µg/mL
- MIC Enterococcus faecalis (GC 4554) (Enterococcus sp.; strain GC 4554): >128 µg/mL
- MIC Enterococcus faecium (GC 4556) (Enterococcus sp.; strain GC 4556): >128 µg/mL
- MIC Enterococcus faecium (GC 4557) (Enterococcus sp.; strain GC 4557): 128 µg/mL (≈ 99.9 µM)
- MIC Enterococcus avium (GC 4558) (Enterococcus sp.; strain GC 4558): 128 µg/mL (≈ 99.9 µM)
- MIC Enterococcus faecalis (GC 6189) (Enterococcus sp.; strain GC 6189): >128 µg/mL
- MIC Escherichia coli (ATCC 25922) (Escherichia coli; Escherichia coli (ATCC 25922)): >128 µg/mL
- MIC Escherichia coli (GC 4559) (Escherichia coli; Escherichia coli (GC 4559)): >128 µg/mL
- MIC Escherichia coli (GC 4560) (Escherichia coli; Escherichia coli (GC 4560)): 128 µg/mL (≈ 99.9 µM)
- MIC Coagulase Negative Staphylococcus (GC 4547) (Staphylococcus sp.): >128 µg/mL
- MIC Coagulase Negative Staphylococcus (GC 4548) (Staphylococcus sp.): >128 µg/mL
- MIC Coagulase Negative Staphylococcus (GC 4549) (Staphylococcus sp.): >128 µg/mL
- MIC Coagulase Negative Staphylococcus (GC 4551) (Staphylococcus sp.): >128 µg/mL
- MIC Staphylococcus aureus (ATCC 29213) (Staphylococcus sp.): >128 µg/mL
- MIC Staphylococcus aureus (GC 1131) (Staphylococcus sp.): >128 µg/mL
- MIC Staphylococcus aureus (GC 3051) (Staphylococcus sp.): >128 µg/mL
- MIC Staphylococcus aureus (GC 3053) (Staphylococcus sp.): >128 µg/mL
- MIC Staphylococcus aureus (GC 4541) (Staphylococcus sp.): >128 µg/mL
- MIC Staphylococcus aureus (GC 4542) (Staphylococcus sp.): >128 µg/mL
- MIC Staphylococcus aureus (GC 4544) (Staphylococcus sp.): >128 µg/mL
- MIC Staphylococcus aureus (GC 4545) (Staphylococcus sp.): >128 µg/mL
- MIC Staphylococcus aureus-SMITH (GC 4543) (Staphylococcus sp.): >128 µg/mL
- MIC Staphylococcus aureus (ATCC 29213) (Staphylococcus sp.; strain ATCC 29213): >128 µg/mL
- MIC Staphylococcus aureus (GC 1131) (Staphylococcus sp.; strain GC 1131): >128 µg/mL
- MIC Staphylococcus aureus (GC 3051) (Staphylococcus sp.; strain GC 3051): >128 µg/mL
- MIC Staphylococcus aureus (GC 3053) (Staphylococcus sp.; strain GC 3053): >128 µg/mL
- MIC Staphylococcus aureus (GC 4541) (Staphylococcus sp.; strain GC 4541): >128 µg/mL
- MIC Staphylococcus aureus (GC 4542) (Staphylococcus sp.; strain GC 4542): >128 µg/mL
- MIC Staphylococcus aureus (GC 4544) (Staphylococcus sp.; strain GC 4544): >128 µg/mL
- MIC Staphylococcus aureus (GC 4545) (Staphylococcus sp.; strain GC 4545): >128 µg/mL
- MIC Coagulase Negative Staphylococcus (GC 4547) (Staphylococcus sp.; strain GC 4547): >128 µg/mL
- MIC Coagulase Negative Staphylococcus (GC 4548) (Staphylococcus sp.; strain GC 4548): >128 µg/mL
- MIC Coagulase Negative Staphylococcus (GC 4549) (Staphylococcus sp.; strain GC 4549): >128 µg/mL
- MIC Coagulase Negative Staphylococcus (GC 4551) (Staphylococcus sp.; strain GC 4551): >128 µg/mL
- MIC Staphylococcus aureus-SMITH (GC 4543) (Staphylococcus sp.; strain SMITH GC 4543): >128 µg/mL
SMILES: N=C1NCC(C(O)C2NC(=O)C(Cc3ccc(OC4OC(CO)C(OC5OC(CO)C(O)C(O)C5O)C(O)C4O)cc3)NC(=O)C(Cc3ccccc3)NC(=O)CNC(=O)C(CO)NC(=O)C(C(O)C3CNC(=N)N3C3OC(CO)C(O)C(O)C3O)NC2=O)N1 (stereo not drawn) [Example 282, Cyclo[glycylphenylalanyl-O-(4-O-hexopyranosylhexopyranosyl)tyrosyl-3-(2-iminomidazolidin-4-yl)seryl-3-(3-hexopyranosyl-2-iminoimidazolidin-4-yl)serylseryl]] (cyclo(GFY(X2)[ξEnduracididine(βξ-OH,4'ξ)][X1]S); configuration not given here)
- MIC Staphylococcus haemolyticus (GC 4546) (Staphylococcus sp.): >128 µg/mL
- MIC Staphylococcus haemolyticus (GC 4546) (Staphylococcus sp.; strain GC 4546): >128 µg/mL

From patent US6914045B2, “Glycopeptide antibiotics” (Wyeth Holdings Corporation, priority 2001, dated 2005)
